What follows are compounds tested against PI3K-alpha (Homo sapiens (Human), UniProt P42336) (assay: HTRF PI3K biochemical assay, alpha isoform). Conditions: ratio PI3K-alpha IC50 value/PI3K-delta IC50 value.
PI3K-alpha, sequence (P42336 whole entry, looked up, canonical isoform): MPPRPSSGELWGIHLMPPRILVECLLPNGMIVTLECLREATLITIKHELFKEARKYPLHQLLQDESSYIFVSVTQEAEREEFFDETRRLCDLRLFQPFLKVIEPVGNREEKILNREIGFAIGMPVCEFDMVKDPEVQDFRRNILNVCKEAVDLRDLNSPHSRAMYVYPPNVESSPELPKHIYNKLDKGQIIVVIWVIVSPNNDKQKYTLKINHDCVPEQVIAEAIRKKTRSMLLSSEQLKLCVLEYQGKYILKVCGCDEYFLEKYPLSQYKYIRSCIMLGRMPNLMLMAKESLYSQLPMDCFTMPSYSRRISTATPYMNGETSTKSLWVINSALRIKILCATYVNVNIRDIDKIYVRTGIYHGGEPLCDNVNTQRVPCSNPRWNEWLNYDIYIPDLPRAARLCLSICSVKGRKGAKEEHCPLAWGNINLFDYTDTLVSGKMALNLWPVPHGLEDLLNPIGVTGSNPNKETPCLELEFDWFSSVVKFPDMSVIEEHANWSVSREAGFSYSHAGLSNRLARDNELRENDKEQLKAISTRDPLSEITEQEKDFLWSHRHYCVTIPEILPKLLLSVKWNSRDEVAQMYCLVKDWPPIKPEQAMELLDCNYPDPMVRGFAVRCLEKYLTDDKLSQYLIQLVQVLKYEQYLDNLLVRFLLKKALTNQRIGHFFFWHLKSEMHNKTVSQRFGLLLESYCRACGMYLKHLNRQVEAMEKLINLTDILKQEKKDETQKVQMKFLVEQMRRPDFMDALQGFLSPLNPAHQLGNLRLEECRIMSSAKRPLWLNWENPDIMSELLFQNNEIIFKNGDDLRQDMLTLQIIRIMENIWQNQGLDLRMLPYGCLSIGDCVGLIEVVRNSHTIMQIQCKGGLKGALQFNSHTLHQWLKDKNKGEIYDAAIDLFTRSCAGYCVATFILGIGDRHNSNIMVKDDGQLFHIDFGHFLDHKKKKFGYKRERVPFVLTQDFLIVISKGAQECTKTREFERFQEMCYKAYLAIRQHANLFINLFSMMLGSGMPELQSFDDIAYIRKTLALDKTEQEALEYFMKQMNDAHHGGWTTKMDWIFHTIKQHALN
PI3K-alpha, sequence (P27986 whole entry partner, looked up, canonical isoform): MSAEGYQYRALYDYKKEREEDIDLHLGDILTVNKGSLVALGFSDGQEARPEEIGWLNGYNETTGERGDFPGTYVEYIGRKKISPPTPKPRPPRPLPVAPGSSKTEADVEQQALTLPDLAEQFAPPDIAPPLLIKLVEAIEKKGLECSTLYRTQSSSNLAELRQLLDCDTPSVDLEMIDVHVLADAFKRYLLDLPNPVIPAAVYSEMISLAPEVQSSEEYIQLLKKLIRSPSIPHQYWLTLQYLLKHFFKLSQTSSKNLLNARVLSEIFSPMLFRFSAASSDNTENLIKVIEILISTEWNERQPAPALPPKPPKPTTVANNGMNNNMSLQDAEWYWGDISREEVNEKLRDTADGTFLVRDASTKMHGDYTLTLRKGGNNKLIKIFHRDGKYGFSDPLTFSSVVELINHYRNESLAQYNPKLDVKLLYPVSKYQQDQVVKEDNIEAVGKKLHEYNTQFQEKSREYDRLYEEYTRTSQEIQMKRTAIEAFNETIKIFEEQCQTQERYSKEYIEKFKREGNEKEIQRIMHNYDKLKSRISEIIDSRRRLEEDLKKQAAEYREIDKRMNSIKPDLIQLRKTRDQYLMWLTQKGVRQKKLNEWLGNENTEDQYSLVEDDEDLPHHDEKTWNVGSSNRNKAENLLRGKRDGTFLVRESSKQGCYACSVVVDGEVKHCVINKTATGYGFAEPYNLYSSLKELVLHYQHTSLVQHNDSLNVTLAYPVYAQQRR

Row | Structure (SMILES) | Relative Selectivity versus PI3Kalpha
1 | CCC(=O)N1CC[C@H](Oc2ncnc3c2nc(-c2cnc4[nH]nc(C)c4c2)n3C)C1 [Compound 3-10, 9-methyl-8-(3-methyl-1H-pyrazolo[3,4-b]pyridin-5-yl)-6-{[(3S)-1-propanoylpyrrolidin-3-yl]oxy}-9H-purine] | >10
2 | CCC(=O)N1CC[C@H](Oc2ncnc3c2nc(-c2cnn(-c4ccccc4)c2)n3C)C1 [Compound 3-11, 9-methyl-8-(1-phenyl-1H-pyrazol-4-yl)-6-{[(3S)-1-propanoylpyrrolidin-3-yl]oxy}-9H-purine] | >10
3 | CCC(=O)N1CC[C@H](Oc2ncnc3c2nc(-c2cnn(-c4ccccc4)c2C)n3C)C1 [Compound 3-12, 9-methyl-8-(5-methyl-1-phenyl-1H-pyrazol-4-yl)-6-{[(3S)-1-propanoylpyrrolidin-3-yl]oxy}-9H-purine] | >10
4 | CCC(=O)N1CC[C@H](Oc2ncnc3[nH]c(-c4cnn(CC)c4C)nc23)C1 [Compound 3-13, 8-(1-ethyl-5-methyl-1H-pyrazol-4-yl)-6-{[(3S)-1-propanoylpyrrolidin-3-yl]oxy}-9H-purine] | >10
5 | CCC(=O)N1CC[C@H](Oc2ncnc3c2nc(-c2cc(F)cc(NS(C)(=O)=O)c2)n3C)C1 [Compound 3-14, N-[3-fluoro-5-(9-methyl-6-{[(3S)-1-propanoylpyrrolidin-3-yl]oxy}-9H-purin-8-yl)phenyl]methanesulfonamide] | >10
6 | CCC(=O)N1CC[C@H](Oc2ncnc3c2nc(-c2cncc(N)c2)n3C)C1 [Compound 3-15, 5-(9-methyl-5-{[(3S)-1-propanoylpyrrolidin-3-yl]oxy}-9H-purin-8-yl)pyridin-3-amine] | >10
7 | CCC(=O)N1CC[C@H](Oc2ncnc3c2nc(-c2cnn(C(C)(C)C)c2)n3C)C1 [Compound 3-16, 8-(1-tert-butyl-1H-pyrazol-4-yl)-9-methyl-6-{[(3S)-1-propanoylpyrrolidin-3-yl]oxy}-9H-purine] | >10
8 | CCC(=O)N1CC[C@H](Oc2ncnc3c2nc(-c2ccc(Cl)nc2)n3C)C1 [Compound 3-17, 8-(6-chloropyridin-3-yl)-9-methyl-6-{[(3S)-1-propanoylpyrrolidin-3-yl]oxy}-9H-purine] | >10
9 | CCCn1c(-c2cnn(CC)c2C)nc2c(O[C@H]3CCN(C(=O)CC)C3)ncnc21 [Compound 3-18, 8-(1-ethyl-5-methyl-1H-pyrazol-4-yl)-6-{[(3S)-1-propanoylpyrrolidin-3-yl]oxy}-9-propyl-9H-purine] | >10
10 | CCCn1c(-c2cnc(C)nc2)nc2c(O[C@H]3CCN(C(=O)CC)C3)ncnc21 [Compound 3-19, 8-(2-methylpyrimidin-5-yl)-6-{[(3S)-1-propanoylpyrrolidin-3-yl]oxy}-9-propyl-9H-purine] | >10
11 | CCC(=O)N1CC[C@H](Oc2ncnc3c2nc(-c2cnc(C)nc2)n3C)C1 [Compound 3-20, 9-methyl-8-(2-methylpyrimidin-5-yl)-6-{[(3S)-1-propanoylpyrrolidin-3-yl]oxy}-9H-purine] | >10
12 | CCC(=O)N1CC[C@H](Oc2ncnc3c2nc(-c2cnn(CC)c2C)n3CC(F)F)C1 [Compound 3-21, 9-(2,2-difluoroethyl)-8-(1-ethyl-5-methyl-1H-pyrazol-4-yl)-6-{[(3S)-1-propanoylpyrrolidin-3-yl]oxy}-9H-purine] | >10
13 | CCC(=O)N1CC[C@H](Oc2ncnc3c2nc(-c2cnn4c2CCC4)n3C)C1 [Compound 3-22, 8-(5,6-dihydro-4H-pyrrolo[1,2-b]pyrazol-3-yl)-9-methyl-6-{[(3S)-1-propanoylpyrrolidin-3-yl]oxy}-9H-purine] | >10
14 | CCn1c(-c2cnn(-c3ccccc3)c2C)nc2c(O[C@H]3CCN(C(=O)C4CC4)C3)ncnc21 [Compound 3-23, 6-{[(3S)-1-(cyclopropylcarbonyl)pyrrolidin-3-yl]oxy}-9-ethyl-8-(5-methyl-1-phenyl-1H-pyrazol-4-yl)-9H-purine] | >10
15 | CCn1c(-c2ccc(OC)c(F)c2)nc2c(O[C@H]3CCN(C(=O)C4CC4)C3)ncnc21 [Compound 3-24, 6-{[(3S)-1-(cyclopropylcarbonyl)pyrrolidin-3-yl]oxy}-9-ethyl-8-(3-fluoro-4-methoxyphenyl)-9H-purine] | >10
16 | CCn1c(-c2cnc3[nH]ccc3c2)nc2c(O[C@H]3CCN(C(=O)C4CC4)C3)ncnc21 [Compound 3-25, 6-{[(3S)-1-(cyclopropylcarbonyl)pyrrolidin-3-yl]oxy}-9-ethyl-8-(1H-pyrrolo[2,3-b]pyridin-5-yl)-9H-purine] | >10
17 | CCn1c(-c2cnc(OC)c(C(F)(F)F)c2)nc2c(O[C@H]3CCN(C(=O)C4CC4)C3)ncnc21 [Compound 3-26, 5-{[(3S)-1-(cyclopropylcarbonyl)pyrrolidin-3-yl]oxy}-9-ethyl-8-[6-methoxy-5-(trifluoromethyl)pyridin-3-yl]-9H-purine] | >10

Row | Structure (SMILES) | Relative Selectivity versus PI3Kalpha
18 | CCn1c(-c2cnc(OC)nc2)nc2c(O[C@H]3CCN(C(=O)C4CC4)C3)ncnc21 [Compound 3-27, 6-{[(3S)-1-(cyclopropylcarbonyl)pyrrolidin-3-yl]oxy}-9-ethyl-8-(2-methoxypyrimidin-5-yl)-9H-purine] | >10
19 | CCn1c(-c2cnc(OC)c(Cl)c2)nc2c(O[C@H]3CCN(C(=O)C4CC4)C3)ncnc21 [Compound 3-28, 8-(5-chloro-6-methoxypyridin-3-yl)-6-{[(3S)-1-(cyclopropylcarbonyl)pyrrolidin-3-yl]oxy}-9-ethyl-9H-purine] | >10
20 | CCn1c(-c2cnc(C)nc2C)nc2c(O[C@H]3CCN(C(=O)C4CC4)C3)ncnc21 [Compound 3-29, 6-{[(3S)-1-(cyclopropylcarbonyl)pyrrolidin-3-yl]oxy}-8-(2,4-dimethylpyrimidin-5-yl)-9-ethyl-9H-purine] | >10
21 | CCn1c(-c2cnc(C)c(F)c2)nc2c(O[C@H]3CCN(C(=O)C4CC4)C3)ncnc21 [Compound 3-30, 6-{[(3S)-1-(cyclopropylcarbonyl)pyrrolidin-3-yl]oxy}-9-ethyl-8-(5-fluoro-6-methylpyridin-3-yl)-9H-purine] | >10
22 | CCC(=O)N1CC[C@H](Oc2ncnc3c2nc(I)n3C)C1 [Compound 3-31, 8-iodo-9-methyl-6-{[(3S)-1-propanoylpyrrolidin-3-yl]oxy}-9H-purine] | >10
23 | CCC(=O)N1CC[C@H](Oc2ncnc3c2nc(-c2ccc(OC)c(F)c2)n3C)C1 [Compound 3-32, 8-(3-fluoro-4-methoxyphenyl)-9-methyl-5-{[(3S)-1-propanoylpyrrolidin-3-yl]oxy}-9H-purine] | >10
24 | CCC(=O)N1CC[C@H](Oc2ncnc3c2nc(-c2ccc(OC)nc2)n3C)C1 [Compound 3-33, 8-(6-methoxypyridin-3-yl)-9-methyl-6-{[(3S)-1-propanoylpyrrolidin-3-yl]oxy}-9H-purine] | >10
25 | CCC(=O)N1CC[C@H](Oc2ncnc3c2nc(-c2cnc(OC)c(F)c2)n3C)C1 [Compound 3-34, 8-(5-fluoro-6-methoxypyridin-3-yl)-9-methyl-6-{[(3S)-1-propanoylpyrrolidin-3-yl]oxy}-9H-purine] | >10
26 | CCC(=O)N1CC[C@H](Oc2ncnc3c2nc(-c2ccc(OC)c(C(F)(F)F)c2)n3C)C1 [Compound 3-35, 8-[4-methoxy-3-(trifluoromethyl)phenyl]-9-methyl-6-{[(3S)-1-propanoylpyrrolidin-3-yl]oxy}-9H-purine] | >10
27 | CCC(=O)N1CC[C@H](Oc2ncnc3c2nc(-c2ccc(OC)c(C)c2)n3C)C1 [Compound 3-36, 8-(4-methoxy-3-methylphenyl)-9-methyl-6-{[(3S)-1-propanoylpyrrolidin-3-yl]oxy}-9H-purine] | >10
28 | CCC(=O)N1CC[C@H](Oc2ncnc3c2nc(-c2cnc(OC)c(C#N)c2)n3C)C1 [Compound 3-37, 2-methoxy-5-(9-methyl-6-{[(3S)-1-propanoylpyrrolidin-3-yl]oxy}-9H-purin-8-yl)pyridine-3-carbonitrile] | >10
29 | CCC(=O)N1CC[C@H](Oc2ncnc3c2nc(-c2cnc(OC)c(NS(C)(=O)=O)c2)n3C)C1 [Compound 3-38, N-[2-methoxy-5-(9-methyl-6-{[(3S)-1-propanoylpyrrolidin-3-yl]oxy}-9H-purin-8-yl)pyridin-3-yl]methanesulfonamide] | >10
30 | CCC(=O)N1CC[C@H](Oc2ncnc3c2nc(-c2ccc(S(C)(=O)=O)cc2)n3C)C1 [Compound 3-39, 9-methyl-8-[4-(methyslulfonyl)phenyl]-6-{[(3S)-1-propanoylpyrrolidin-3-yl]oxy}-9H-purine] | >10
31 | CCC(=O)N1CC[C@H](Oc2ncnc3c2nc(-c2cnn4c2CCCC4)n3C)C1 [Compound 3-40, 9-methyl-6-{[(3S)-1-propanoylpyrrolidin-3-yl]oxy}-8-(4,5,6,7-tetrahydropyrazolo[1,5-a]pyridin-3-yl)-9H-purine] | >10
32 | CCn1c(-c2cnc(OC)c(NS(C)(=O)=O)c2)nc2c(O[C@H]3CCN(C(=O)C4CC4)C3)ncnc21 [Compound 3-41, N-[5-(6-{[(3S)-1-(cyclopropylcarbonyl)pyrrolidin-3-yl]oxy}-9-ethyl-9H-purin-8-yl)-2-methoxypyridin-3-yl]methanesulfonamide] | >10
33 | CCn1c(-c2cnc(OC)c(C#N)c2)nc2c(O[C@H]3CCN(C(=O)C4CC4)C3)ncnc21 [Compound 3-42, 5-(6-{[(3S)-1-(cyclopropylcarbonyl)pyrrolidin-3-yl]oxy}-9-ethyl-9H-purin-8-yl)-2-methoxypyridine-3-carbonitrile] | >10
34 | CCn1c(-c2cnc(C(F)(F)F)nc2)nc2c(O[C@H]3CCN(C(=O)C4CC4)C3)ncnc21 [Compound 3-43, 6-{[(3S)-1-(cyclopropylcarbonyl)pyrrolidin-3-yl]oxy}-9-ethyl-8-[2-(trifluoromethyl)pyrimidin-5-yl]-9H-purine] | >10
